# From US20250101436A1, “APTAMERS AND SMALL MOLECULE LIGANDS” (MeiraGTx UK II Limited, priority 2021, published 2025)
# Tests used:
# [1] = tested on: E. coli thiM TPP aptamer in TPPm riboswitch; assay: Firefly luciferase assay, TPPm riboswitch construct in HEK 293 cells; format: cell-based, human; settings: HEK 293, 50 μM Comp. 004
# Procedure: (§1) First, the E. coli thiM TPP aptamer, the aptamer that was used in Weeks' work in generating the Comp. 004, was tested in TPPm riboswitch construct (SEQ ID No. 87 as described in 62/994,135) for its response to Comp. 004 in inducing gene expression. To evaluate whether this novel TPP aptamer binder could bind a different TPP aptamer, TPP aptamer from Alishewanella tabrizica thiC gene (Microbiol Res. 2017 January; 195:71-80) was tested in TPPz riboswitch construct (SEQ ID No. 86 as described in 62/994,135).
# 12C6-1 riboswitch = assay: Firefly luciferase assay, Luci-12C6-1 riboswitch construct in transfected HEK 293 cells; format: cell-based, human; settings: Luci-12C6-1, HEK 293, 50 uM Comp. 004
# Text: Riboswitch construct: Aptamers were synthesized by Integrated DNA Technologies, Inc. The synthesized aptamer sequence, here referred to as aptamer sequence 12C6-1, contains a putative TPP aptamer sequence (AP008955.1/944373-944459; CP030117.1/954080-954166; CP023474.1/977011-977097) with C at 5′ end and a complementary G at 3′ end flanking the putative TPP aptamer sequence: […] […] (SEQ ID NO: 1). Golden Gate cloning strategy (New England Biolabs, NEB) was used to clone the synthesized aptamer sequences into an intron-exon-intron cassette to replace the guanine aptamer in the G17 riboswitch cassette (see SEQ ID NO: 15 recited in WO 2016/126747, which is incorporated herein in its entirety) to generate riboswitch construct Luci-12C6-1.
# [2] = tested on: mEpo-12G6 (N5-12G6 riboswitch in mEpo gene); assay: ELISA for mouse erythropoietin, construct mEpo-12G6 in AML12 cells; format: cell-based; settings: mEpo-12G6, 1.85 μM Comp. 004
# Text: (§2) Riboswitch constructs: The alternative splicing riboswitch cassette containing aptamers N5-12G6 or N4-1C11 was inserted between nucleotide position 307 and 308 in the mouse erythropoietin cDNA sequence, generating constructs mEpo-12G6 and mEpo-1C11. Expression of the erythropoietin gene was driven by CASI promoter. The intron-exon-intron cassette without aptamer sequence was inserted at the same position in the cDNA of mEpo gene to create construct mEpo-Con1, serving as a control for constitutive target gene expression. N5-12G6 riboswitch cassette was inserted between nucleotide position 424 and 425 in the cDNA of human growth hormone (hGH) gene driven under CMV promoter.
# (§3) Enzyme-linked immunosorbent assay (ELISA) for mouse erythropoietin (mEpo): AML-12 cells or C2C12 cells were transfected as described in Example 1 with TransIT-X2 transfection reagent (Mirus Bio). Four hours after transfection, the transfected cells were treated with or without Comp. 004 at the indicated doses. The supernatants from the transfected cells were collected 24 hours after compound treatment and were subjected to ELISA for the detection of mEpo in the supernatant following the manufacturer's instruction (R&D).
# [3] = tested on: hematocrit of anemic mice; assay: Hematocrit in mouse model of chronic kidney disease (CKD)-associated anemia with AAV8.mEpo.12G6; format: in vivo; settings: for hematocrit: 300 mg/kg for 15 days and 10 doses
# Procedure: Chronic kidney disease-associated anima: male C57Bl/6 mice were injected intramuscularly with 2.5×10^10 vg or 1.0×10^10 vg of AAV8.mEpo.12G6 per mouse. One week post AAV injection, mice were treated daily with 50 mg/kg adenine (Sigma) via oral gavage for total 28 treatment in 5 weeks. Hematocrit was measured after Adenine treatment and before small molecule inducer treatment and monitored every 7 to 10 days post daily small molecule inducer oral dosing.
# N4-1C11 riboswitch = assay: Firefly luciferase assay, N4-1C11 riboswitch in HEK 293 cells; format: cell-based, human; settings: N4-1C11, 0.1 μM Comp. 004
# Procedure: (§4) Transfection: 3.5×10^4 human embryonic kidney (HEK) 293 cells were plated in a 96-well flat bottom plate the day before transfection. Plasmid DNA (500 ng) was added to a tube or a 96-well U-bottom plate. Separately, TransIT-293 reagent (Mirus; 1.4 L) was added to 50 μL Optimum I media (Life Technologies) and allowed to sit for 5 minutes at room temperature (RT). Then, 50 μL of this diluted transfection reagent was added to the DNA, mixed, and incubated at RT for 20 min. Finally, 7 μL of this solution was added to a well of cells in the 96-well plate. Four hours after transfection, medium containing transfection solution was replaced by medium with either TPP or fursultiamine as aptamer ligands.
# (§5) Firefly luciferase assay of cultured cells: Twenty-four hours after media change, plates were removed from the incubator, and equilibrated to RT for several minutes on a lab bench, then aspirated. […] Following a 5 min incubation at RT, luminescence was measured using a Tecan machine with 500 ms read time. The luciferase activity was expressed as mean arbitrary light units (ALU)±S.D., and fold induction was calculated as the quotient of the luciferase activity obtained from cells with TPP or analog compound treatment divided by the luciferase activity obtained from cells without TPP or analog compound treatment.
# [4] = tested on: mEpo-1C11 (N4-1C11 riboswitch in mEpo gene); assay: ELISA for mouse erythropoietin, construct mEpo-1C11 in AML12 cells; format: cell-based; settings: mEpo-1C11, 1.85 μM Comp. 004
# Text: as §2, §3
# [5] = tested on: riboswitch regulatable mEpo constructs; assay: ELISA for mouse erythropoietin, riboswitch regulatable mEpo constructs in C2C12 cells; format: cell-based
# Text: as §2, §3
# [6] = tested on: AAV9.hPTH-12G6 hPTH expression; assay: hPTH production and serum calcium in mice injected intramuscularly with AAV9.hPTH-12G6, oral Comp. 004; format: in vivo; settings: oral 30, 100 or 300 mg/kg for 3 days
# Procedure: AAV2.9 viral particle production: The AAV9 particles used for the transduction of mice comprised a viral genome derived from AAV2 (ITR) and a capsid derived from AAV9. The hPTH-12G6 was cloned into AAV plasmid backbone with CASI promoter, and the AAV plasmid was packaged into AAV9 capsid, generating vector AAV9.hPTH-12G6 (Signagen)
# Animal study: C57BL/6 mice were injected intramuscularly with AAV9.hPTH-12G6 at 2.5×10^11 viral genome (VG) per mouse of the AAV9 viral particle into both quadriceps. Compound 004 was formulated in 0.5% methylcellulose (MC): 0.25% Tween® 80 in deionized (DI) water for oral administration. 30 days after AAV vector delivery, mice were treated orally via oral gavage with 0 mg/kg, 30 mg/kg, 100 mg/kg or 300 mg/kg Comp. 004 for 3 days.
# N5-12E5 riboswitch = assay: Firefly luciferase assay, N5-12E5 riboswitch in HEK 293 cells; format: cell-based, human; settings: N5-12E5, 0.1 μM Comp. 004
# Procedure: as §4, §5
# N5-12G6 riboswitch = assay: Firefly luciferase assay, N5-12G6 riboswitch in HEK293 cells; settings: N5-12G6, 0.1 μM Comp. 004
# Procedure: as §4
# Firefly luciferase assay of cultured cells: Twenty-four hours after media change, plates were removed from the incubator, and equilibrated to RT for several minutes on a lab bench, then aspirated. Glo-lysis buffer (Promega, 100 μL, RT) was added, and the plates allowed to remain at RT for at least 5 minutes. Then, the well contents were mixed by 50 μL trituration, and 20 μL of each sample was mixed with 20 μL of bright-glo reagent (Promega) that had been diluted to 10% in glo-lysis buffer. 96 wells were spaced on an opaque white 384-well plate. Following a 5 min incubation at RT, luminescence was measured using a Tecan machine with 500 ms read time. The luciferase activity was expressed as mean arbitrary light units (ALU)±S.D., and fold induction was calculated as the quotient of the luciferase activity obtained from cells with TPP or analog compound treatment divided by the luciferase activity obtained from cells without TPP or analog compound treatment.
# [7] = tested on: Alishewanella tabrizica thiC aptamer in TPPz riboswitch; assay: Firefly luciferase assay, TPPz riboswitch construct in HEK 293 cells; format: cell-based, human; settings: HEK 293, 50 μM Comp. 004
# Procedure: as §1
# [8] = tested on: hPTH-12G6 (N5-12G6 riboswitch in hPTH gene); assay: ELISA for human PTH, hPTH-12G6 construct in HEK 293 cells; format: cell-based; settings: HEK 293, hPTH-12G6
# Text: Riboswitch constructs: Alternative splicing riboswitch cassette containing aptamers N5-12G6 was inserted between nucleotide position 181 and 182 in human parathyroid hormone (hPTH) cDNA sequence, generating constructs hPTH-12G6. Expression of the erythropoietin gene was driven by CASI promoter.
# as §3, with “human PTH: HEK 293” for “mouse erythropoietin (mEpo): AML-12 cells or C2C12”, “TransIT-293” for “TransIT-X2”, “Compound” for “Comp.”, “48” for “24”, “human PTH” for “mEpo”, “(Abcam).” for “(R&D).”
# [9] = tested on: AAV8.mEpo.12G6 mEpo expression; assay: Serum mouse Epo ELISA in mice injected in the muscle with AAV8.mEpo.12G6, oral Comp. 004; format: in vivo; settings: 1×10^11 GC AAV8 in the muscle, 30 mg/kg oral
# Procedure: For regulated mouse erythropoietin (mEpo) study, each female Balb/c mouse was injected in the quadricep muscle with 1.0×10^11, 5×10^10, 1×10^10, or 5×10^9 GC of AAV8 vectors containing riboswitch N5-12G6 regulated mEpo gene (AAV8.mEpo.12G6). 5 weeks post AAV injection, mice were treated with Comp. 004 formulated in 0.5% methylcellulose (MC): 0.25% Tween® 80 in deionized (DI) water via oral gavage. 16 hours post oral dosing, mice were subjected to submandibular blood collection. 10 fold diluted serum was used to measure mouse serum Epo using ELISA (Invitrogen).
# [10] = tested on: hGH-12G6 (N5-12G6 riboswitch in hGH gene); assay: ELISA for human growth hormone, hGH-12G6 construct in HEK 293 cells; format: cell-based; settings: HEK 293, hGH-12G6, 3.1 μM Comp. 004
# Text: as §2
# as §3, with “ELISA” for “Enzyme-linked immunosorbent assay (ELISA)”, “human growth hormone (hGH): HEK 293” for “mouse erythropoietin (mEpo): AML-12 cells or C2C12”, “TransIT-293” for “TransIT-X2”, “Comp. 004” for “compound”, “hGH” for “mEpo”, “(R&D Systems).” for “(R&D).”
smiles,measurement,setting,value
c1cc(N2CCNCC2)c(NCc2ccc3nccnc3c2)cn1 [Comp. 004],increase in luciferase expression,[1],4.1
same,fold increase in luciferase expression,12C6-1 riboswitch,360 fold
same,fold induction of mEpo expression,[2],about 148 fold
same,hematocrit,[3]; AAV 1×10^10 vg per mouse,restored to normal level
same,hematocrit,[3]; AAV 2.5×10^10 vg per mouse,exceeded the normal hematocrit level
same,hematocrit of anemic mice,"[3]; after 20 oral doses, biggest increase in the 100 mg/kg dose group",increased
same,fold increase in luciferase expression,N4-1C11 riboswitch,16 fold
same,fold induction of mEpo expression,[4],~71 fold
same,mEpo expression,[5],induced upon treatment of Comp. 004 in a dose dependent manner
same,production of hPTH in mice,[6],induced dose-dependent production of hPTH
same,serum calcium concentration,[6],increase in the serum calcium concentration
same,fold increase in luciferase expression,N5-12E5 riboswitch,8 fold
same,fold increase in luciferase expression,N5-12G6 riboswitch,36 fold
same,fold increase in luciferase expression,[7],26 fold
same,hPTH expression,[8],dose dependent manner
same,serum vector-expressed mEpo,[9],elevated
same,fold of the hGH expression from cells without compound treatment,[10],approximately 243 fold
same,hGH expressed,[10],202 ng/mL
